Data: paper PMC4883067 (Pharmacognosy Magazine, 2016)

Tests used:
[1] = cited from earlier work
[2] = molecular target: T1, rat brain MAO-B (Rattus norvegicus, UniProt P19643); assay: Inhibition of MAO-B activity in rat brain crude mitochondrial fraction; format: biochemical
T1 sequence (P19643 1-520): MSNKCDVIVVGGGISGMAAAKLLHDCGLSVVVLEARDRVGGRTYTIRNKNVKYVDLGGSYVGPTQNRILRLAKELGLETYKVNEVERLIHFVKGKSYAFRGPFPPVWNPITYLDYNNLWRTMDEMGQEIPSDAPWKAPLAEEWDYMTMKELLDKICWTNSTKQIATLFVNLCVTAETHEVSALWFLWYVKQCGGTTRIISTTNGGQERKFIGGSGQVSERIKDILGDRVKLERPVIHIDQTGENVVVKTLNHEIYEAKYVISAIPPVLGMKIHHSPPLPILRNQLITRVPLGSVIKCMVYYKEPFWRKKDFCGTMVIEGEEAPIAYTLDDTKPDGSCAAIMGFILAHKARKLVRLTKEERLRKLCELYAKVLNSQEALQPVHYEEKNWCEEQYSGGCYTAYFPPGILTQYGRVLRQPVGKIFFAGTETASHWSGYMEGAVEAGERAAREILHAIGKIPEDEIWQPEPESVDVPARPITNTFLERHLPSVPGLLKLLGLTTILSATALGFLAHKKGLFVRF

[3] = molecular target: T1, rat brain MAO-B; assay: Kinetics of monoamine oxidase inhibition; format: biochemical; settings: for Mechanism of inhibition: MAO-B, substrate benzylamine, Lineweaver-Burk

Row | Structure (SMILES) | pKa value [1] | IC50 [2] | Mechanism of inhibition [3] | Vmax (remained constant) ([3]; ellagic acid, 200–600 μg/ml as printed, benzylamine 5-15 mM)
1 | COc1cc(C=CC(=O)CC(=O)C=Cc2ccc(O)c(OC)c2)ccc1O [Curcumin, 1,7-bis-(4-hydroxy-3-methoxyphenyl)-hepta-1,6-diene-3,5-dione] | 8.54 | 500 nM | noncompetitive | –
2 | O=c1oc2c(O)c(O)cc3c(=O)oc4c(O)c(O)cc1c4c23 [Ellagic acid] | – | 412 nM | Competitive | 8.40 nM/min
